From patent publication US20170131257A1, “SYSTEMS AND METHODS OF REMOVING AND MANAGING HEAVY METALS” (priority 2007, published 2017)

What was measured:
[1] = Mercury binding test of substrates in a salt solution
Zebra Fish = format: in vivo
Experimental: Following EPA Method 7473, a total of 44 Zebra fish were randomized into four one gallon tanks and fed an experimental or control diet for 6 days. On the seventh day the fish were not fed so that any food being digested would have been absorbed or eliminated. The fish were fed 1.0 gram of food twice a day the first day. On the second day the fish were fed 0.5 grams twice a day. On days 3-6 the fish were fed 0.5 gram once a day.
The control and experimental feed was prepared using:
9.8 g. Frozen Thawed Brine Shrimp
The corn starch and water were boiled for 2 minutes then mixed with the remaining ingredients. The basic food was divided into four groups. The study groups consisted of: the control (Group C), an experimental group in which phytic acid di-sodium salt was added to the feed at 5% by […] (Group A), an experimental group in which 15 μg mercuric iodide salt per gram of food was added (Group B), and lastly Group D in which fish were fed the above stated amounts of mercuric iodide salt and phytic acid di-sodium salt.
The analysis was conducted by a contracted company, Northwest Pacific Labs. Samples were stratified by treatment and randomly sampled. A test of atomic absorption was used to determine absorbed mercury, after calibrating the instrument.

[2] = Chelation between mercury and phytic acid at different pH levels; conditions: pH levels including acidic levels commonly found in the stomach
Source text: An amount of food 72 that may contain a concentration of the heavy metal (“contaminated food”) is consumed with an amount of the ligand 74, or, near the time of consuming the ligand 74. In one implementation, the ligand 74 is phytic acid. The ligand 74 is preferably in an amount suitable for at least substantially bonding to the mercury contained within the food 72. The ligand 74 may be prepared in the form of a marinade or sauce directly applied to the food 72, or may be a separate supplement such as a pill, alternate food source, or the like. Ingestion 76 may provide mixing of the food 72 and ligand 74. When the food 72 and ligand 74 are mixed, then chelation 78 causes the mercury or other heavy metal in the food 72 to bond to the ligand 74, thereby forming a chelate 82. The chelate 82 causes food 72 containing some mercury to become a clean food 80, substantially free of the mercury. The clean food 80 proceeds to normal digestion 84, while the chelate 82 proceeds to safe egestion 86 from the body. Thus, the mercury contained within food 72 is passed through the living organism without digestion 84.

## O=P(O)(O)O[C@H]1[C@H](OP(=O)(O)O)[C@@H](OP(=O)(O)O)[C@H](OP(=O)(O)O)[C@@H](OP(=O)(O)O)[C@H]1OP(=O)(O)O [Phytic Acid, phytic acid]
[1]
  binding of mercury by the substrate: would bind mercury
Zebra Fish; Group D (phytic acid plus mercury) vs mercury alone, baselines of mercury controlled for, seven day time frame
  reduction of mercury absorption: 50%
Zebra Fish; Group D: phytic acid 5% per wt. and 15 micrograms HgI2 per gram food, fed 6 days, N=4
  Total Hg Wet Weight, Mean: .1047
Zebra Fish; weighted sample, Mann-Whitney test, Sig=0.000
  absorbed mercury, group D vs mercury-alone group B: less absorbed mercury
[2]
  chelation with mercury across pH: can occur at a wide range of pH levels
